Experimental data: patent US7629315B2, “Compositions for blocking the inhibitory effect of human CRP on human leptin” (University of Pittsburgh of the Commonwealth System of …, priority 2005, dated 2009)
Entries after “also recorded” stand apart in the source; their conditions may differ. Like-named read-outs stand apart in the source and are kept apart here.

Legend:
[1] = tested on: leptin-induced tyrosine phosphorylation of STAT3; assay: Leptin-induced STAT3 tyrosine phosphorylation in HEK293 cells expressing OB-Rb (western blot), human leptin; type: cell-based; conditions: for effect on leptin-induced tyrosine phosphorylation of STAT3: human leptin 2 nM, protein pre-incubated with leptin, HEK293 OB-Rb cells
Procedure: (§1) 2. Signaling Studies: A HEK293 cell line stably expressing the human long-form receptor, OB-Rb (M. Friedman-Einat et al., 2003, Regul. Pept. 111, 77) was serum starved for 2-h before addition of leptin and CRP. Leptin (SEQ ID NO:4), in the presence or absence of C-reactive proteins, was pre-incubated in μ-MEM for 30 minutes at 37° C. before applied to the cells. After a 30-incubation with leptin (SEQ ID NO:4), the cells were harvested in a previously described protein lysis buffer. A. Z. Zhao et al., 1997, Proc. Natl. Acad. Sci. U.S.A. 94, 322. The protein extract was subjected to a western blot assay with an anti-phospho-STAT3 specific antibody (Cell Signaling, Beverly, Mass.). For studies involving the primary hypothalamic neurons, the rat hypothalamus was surgically isolated right after euthanasia, and immediately placed in the DMEM for incubation with leptin in the presence or absence of CRP.
(§2) To determine if the interaction between CRP and leptin influences cellular actions of leptin, we assessed the ability of leptin to stimulate tyrosine phosphorylation of STAT3 and PI3-kinase activity in the presence of CRP in vitro.

ob/ob mice = assay: Infusion of human CRP and/or human leptin by osmotic pumps into ob/ob mice; type: in vivo, mouse; conditions: for body weight / food-intake: human CRP alone, without co-infusion of leptin; for effect on leptin-regulated body weight / effect on leptin-regulated food-intake: 6 days
Procedure: 3(a). In vivo assessment of CRP functions: The micro-osmotic pumps (#1007D, DURECT, Cupertino, Calif.) were subcutaneously imbedded in the ob/ob or wild-type mice according to the instructions of the manufacturer. The osmotic pumps were pre-filled with saline, CRP, leptin or leptin plus CRP. Food-intake (24-h), body weight, and body temperature were monitored daily post-surgery. Blood glucose concentrations were measured from the tail-vein blood samples right before and at the end of infusion with a Precision Plus glucose meter (Medisense, Abbot Park, Ill.).
(§3) 3(b) Assessment of serum leptin insulin, and CRP: Human- and mouse-leptin concentrations were measured with the ELISA kit from CHEMICON (Temecular, Calif.) and R&D Systems (Minneapolis, Minn.), respectively, according to the instructions of the manufacturer. Serum mouse insulin concentrations were determined with an ELISA assay (LINCO Research, St. Charles, Mo.). Human CRP concentrations were also evaluated with an ELISA kit (Alpha Diagnostics International, San Antonio, Tex.).
3(c) Measurement of serum- and tissue-triglycerides: Serum- and tissue-triglycerides were determined with the protocols described in J. N. Huan et al., 2003, J. Biol. Chem. 278, 45638. […]

mouse leptin = mouse leptin (Mus musculus, UniProt P41160); assay: IC50 for human CRP against mouse leptin (leptin binding to OB-Rb HEK293 cells); conditions: in the presence of about 2 ng/ml mouse leptin
human leptin [2] = target: T1, human leptin (Homo sapiens, UniProt P41159); assay: IC50 for human CRP against human leptin (125I-leptin binding to OBR-expressing HEK293 cells); conditions: in the presence of about 2 ng/ml human leptin
Procedure: 4. Measurement of IC50 for human CRP against human leptin: Human leptin was iodinated with Na^125I using the lodogen method. Briefly, 15 μg of human leptin in 100 mM Phosphate buffer pH 7.5 were incubated with 1 mCi of carrier-free Na^125I (2200 Ci/mmol) in a glass tube containing 50 μg Iodogen. After 10 minute incubation at room temperature, the reaction was stopped with 100 μl 0.1% trifluoroacetic acid (TFA). The reaction mixture was immediately purified by reverse-phase HPLC. The separation employed a 5 minute isocratic step at 20% eluant B in A, followed by two consecutive 30 minute linear gradients from 20 to 50%, then from 50 to 60% eluant B in A (where eluant A is water containing 0.1% TFA and eluant B is acetonitrile containing 0.1% TFA) at a flow rate of 1.5 ml/min. The ^125I-labeled leptin (˜2 ng/ml) was pre-incubated with various concentrations of human CRP in 1 ml of μ-MEM for 30 minute before added to the OBR-expressing HEK293 cells. The incubation would last for 3 hours at 4° C. before the media was aspirated and the cells were dissolved in 0.1N NaOH for scintillation counting.
To examine if human CRP interferes with the binding of human leptin to its receptors, we used a HEK293 cell line stably transfected with the long-form human leptin receptor, OB-Rb. The characterization of this cell line has been reported in earlier studies. M. Friedman-Einat et al., 2003, Regul. Pept. […]

human leptin [3] = target: T1, human leptin; assay: Immunoprecipitation of human CRP with human leptin; type: binding; conditions: leptin/CRP mixture and human serum
Procedure: Direct binding of […] and leptin in an immunoprecipitation assay was determined. Rat CRP was purified from fresh rat serum to >95% employing a previously established affinity-purification protocol. J. Tseng et al., 1988, Mol. Immunol. 25, 679. This purity is very similar to the human CRP preparation obtained from a commercial source (CHEMICON International). The purified human- and rat-CRP proteins were pre-mixed with recombinant human and mouse leptin, respectively, before addition of specific antibodies against human- and mouse-leptin. The concentrations of CRP and leptin in the precipitation reaction were all within the physiological ranges (M. B. Schulze et al., 2004, Diabetes Care 27, 889; T. Kazumi et al., 2003, Metabolism 52, 1113).
In parallel experiments, recombinant leptin was also pre-mixed with human- or rat serum to allow for potential direct interactions prior to immunoprecipitation. The precipitation pellets obtained were subjected to western blot assays with specific anti-CRP antibodies. […] Because of the similarities between rat CRP and human CRP in the binding to leptin and of our main interest in the relevance to human obesity, focus was placed on potential functional effects of human CRP in the subsequent experiments.

[4] = tested on: human IL6-stimulated tyrosine phosphorylation of STAT3; assay: IL6-stimulated STAT3 phosphorylation in human primary hepatocytes (specificity control); type: cell-based
[5] = Serum levels of infused human CRP and human leptin in ob/ob mice (ELISA); type: in vivo, mouse
Procedure: as §3

[6] = tested on: insulin-stimulated PI3-kinase; assay: Insulin-stimulated PI3-kinase activity in differentiated 3T3-L1 adipocytes (specificity control); type: cell-based
[7] = tested on: mouse leptin-induced STAT3 activation; assay: Leptin-induced STAT3 tyrosine phosphorylation in HEK293 cells expressing OB-Rb, mouse leptin; type: cell-based; conditions: murine leptin 2 nM
Procedure: as §1, §2

[8] = tested on: leptin signaling in rat primary hypothalamic neurons; assay: Leptin signaling (phospho-STAT3 and PI3-kinase assays) in rat primary hypothalamic neurons; type: cell-based; conditions: human leptin, rat primary hypothalamic ex-plants
Procedure: as §1
Previous studies have reported a requirement of both JAK-STAT and PI3-kinase pathways in mediating leptin signaling within the hypothalamus. C. Vaisse et al., 1996, Nat. Genet. 14, 95; A. Z. Zhao et al., 2002, Nat. Neurosci. 5, 727; K. D. Niswender et al., 2001, Nature 413, 794. The effects of human CRP on leptin signaling in rat primary hypothalamic ex-plants were also tested (FIG. 4D).

[9] = human CRP high dosage 40 μg/day co-infused with human leptin
[10] = human CRP high dosage co-infused with leptin
[11] = human CRP low dosage 10 μg/day co-infused with human leptin

T1 sequence (P41159 22-167): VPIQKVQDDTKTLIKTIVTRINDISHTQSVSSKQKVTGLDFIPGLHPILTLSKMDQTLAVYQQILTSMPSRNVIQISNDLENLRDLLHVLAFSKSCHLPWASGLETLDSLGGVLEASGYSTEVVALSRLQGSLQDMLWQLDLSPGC
mouse leptin, sequence (P41160 22-167): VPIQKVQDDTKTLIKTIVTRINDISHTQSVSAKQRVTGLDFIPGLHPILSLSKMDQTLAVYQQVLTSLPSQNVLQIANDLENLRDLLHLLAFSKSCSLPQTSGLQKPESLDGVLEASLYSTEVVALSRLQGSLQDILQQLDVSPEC

For “human CRP: human C-reactive protein preparation obtained from a commercial source (CHEMICON International)”, the “calcium dependence of attenuation of leptin signaling” value ([1]; excess EGTA added to the incubation medium) was “requires the presence of calcium ions”, the “effect on leptin-induced tyrosine phosphorylation of STAT3” value [1] was “attenuate the tyrosine-phosphorylation of STAT3; also recorded: Attenuating effects; also recorded: caused the reduction of leptin-stimulated STAT3 activation” and the “effect on leptin-induced tyrosine phosphorylation of STAT3” value ([1]; listed as Human CRP) was “suppressed the activation of STAT3 by leptin”. For the same substance, the “leptin-stimulated STAT3 activation in hypothalamic tissues” value (ob/ob mice; high dose CRP co-infused with leptin) was “blocked by co-infusion of CRP with leptin”, the body weight (ob/ob mice) was “did not affect food-intake or body weight” and the food-intake (ob/ob mice) was “did not affect food-intake or body weight”. The body weight (ob/ob mice; listed as CRP) was “does not influence food-intake and body-weight”, the food-intake (ob/ob mice; listed as CRP) was “does not influence food-intake and body-weight” and the “effect on leptin-regulated body weight” value (ob/ob mice; [9]) was “completely blocked the actions of leptin to restrain appetite and induce weight loss; also recorded: completely blocked the effects of leptin”. The “effect on leptin-regulated food-intake” value (ob/ob mice; [9]) was “completely blocked the actions of leptin to restrain appetite and induce weight loss; also recorded: completely blocked the effects of leptin”, the “effect on leptin-regulated rectal temperature” value (ob/ob mice; human CRP high dosage co-infused with human leptin) was “attenuation of leptin-induced energy expenditure; also recorded: completely blocked the effects of leptin on rectal temperature” and the “effect on leptin-induced change in blood glucose” value (ob/ob mice; [10]) was “blocked these effects of leptin; also recorded: completely blocked leptin-induced beneficial effects”. The “effect on leptin-induced change in hepatic triglycerides” value (ob/ob mice; [10]) was “blocked these effects of leptin; also recorded: completely blocked leptin-induced beneficial effects”, the “effect on leptin-induced change in serum insulin” value (ob/ob mice; [10]) was “blocked these effects of leptin; also recorded: completely blocked leptin-induced beneficial effects” and the “effect on leptin-induced change in serum triglycerides” value (ob/ob mice; [10]) was “blocked these effects of leptin; also recorded: completely blocked leptin-induced beneficial effects”. For the same substance, the “effect on leptin-regulated body weight” value (ob/ob mice; [11]) was “only partially attenuated these effects of human leptin; also recorded: only partially blocked leptin's effect”, the “effect on leptin-regulated food-intake” value (ob/ob mice; [11]) was “only partially attenuated these effects of human leptin; also recorded: only partially blocked leptin's effect” and the “IC50 of human CRP towards mouse leptin” value (mouse leptin) was “greater than 64 μg/ml”. For the same substance, the “IC50 of CRP for reduction of 125I-labeled human leptin binding to its receptors” value (human leptin [2]) was “approximately 80 ng/ml”, the “direct binding to human leptin (immunoprecipitation with anti human-leptin, anti-CRP western blot)” value (human leptin [3]) was “could pull down human CRP” and the “effect on IL6-stimulated tyrosine phosphorylation of STAT3” value [4] was “did not suppress IL-6 induced activation of STAT3”. The “effect on IL6-stimulated tyrosine phosphorylation of STAT3” value ([4]; listed as Human CRP) was “does not affect human IL6-stimulated tyrosine phosphorylation of STAT3”, the “serum concentration of human CRP” value ([5]; end of infusion, human CRP 48 μg/day/mouse) was 850 ± 100 ng/mL and the “serum concentrations of human CRP attained” value ([5]; human CRP infused at 10 or 40 μg/day) was “well within the physiological range observed in human plasma”. The “effect on insulin-stimulated PI3-kinase activity” value [6] was “did not suppress; also recorded: does not affect insulin-stimulated PI3-kinase activity”, the “effect on mouse leptin-induced STAT3 phosphorylation” value [7] was “less efficient in blocking the signaling capacity of mouse leptin; also recorded: unable to block leptin-induced STAT3 activation” and the “effect on leptin signaling (phospho-STAT3 and PI3-kinase)” value [8] was “inhibited leptin signaling in primary hypothalamic neurons”.
